Residues, ends and D or L forms follow the SMILES beside them. *: point of attachment. For = O=C*
Experiments:
[1] = target: T1, β2AR-GFP with Gαsβ1γ2 on Ni beads (Homo sapiens, UniProt P07550); experiment: ARG assembly assay on G protein coated beads, flow cytometry; format: biochemical; settings: for slope of GFP/bead versus β2AR-GFP concentration: dobutamine relative to salbutamol
T1 construct: expressed in transfected cells; host or cells: receptor fusion: U937 cells, solubilized membranes
Procedure: ARG Assembly Assay on G Protein Coated Beads—Coating of the Ni beads with heterotrimeric G proteins has been described before in detail (10). Briefly, 25 pmol of the desired α subunit and 25 pmol of hexahistidine-tagged β1γ2 were mixed with 2.5 μl of a 50% slurry of DCNi beads (2.5×10^5 beads/μl) and 190 μl of HPSM containing 0.1% dodecyl maltoside and 1 mM dithiothreitol, then kept in suspension by rocking at 4–7° C. for one hour. The beads were then centrifuged for 30 seconds at 1,500×gmax, the supernatant was removed, and the beads were resuspended in 50 μl of the buffer. This provided 25 aliquots of 24,000 G protein coated beads, for 25 ARG assembly assays (some beads were lost to surfaces). A ten microliter ARG assembly assay generally consisted of two microliters of solubilized receptor preparation, two microliters of desired ligand, four microliters of HPSM containing 0.1% dodecyl maltoside, and two microliters of G protein coated beads. Nonspecific fluorescence was defined in the presence of 0.1 mM GTPγS. These suspensions were mixed on an orbital mixer for 2 hours, brought to 200 μl with HPSM containing 0.1% dodecyl maltoside, transferred to a 12×75 mm tube, and immediately analyzed by flow cytometry for bead fluorescence. For kinetic data, tubes were removed from the cytometer after twenty seconds, 2 μl of 10^−2 M GTPγS was added and mixed, and the tubes were returned to the cytometer for measurement of the bead fluorescence. The cytometer data were converted to alphanumeric form and binned into one second intervals using the FACSQuery program (available free from Bruce Edwards), which provides a series of mean channel fluorescence (MCF) values in an Excel file.

[2] = tested on: adenylyl cyclase activity via β2AR in membranes; settings: membranes (3); cited from earlier work
β2AR in membranes = settings: membrane binding assays (3); cited from earlier work
[3] = target: T2, FPR-GFP (R^F) with Gαi3β1H6γ2 on DCNi beads (Homo sapiens, UniProt P21462); experiment: Standard LRG assembly assay with FPR-GFP on G protein beads, flow cytometry; format: biochemical
T2 construct: host or cells: receptor fusion: transfected cells (U937 named for FPR), solubilized membranes; β1H6γ2: Sf9 insect cells
Procedure: Standard LRG Assembly Assay. […] Each mixture was mixed by pipetting to ensure a uniform starting suspension of the beads in 96 V-well plates (Costar), and then mixed at low speed on a vortex mixer at 7° for two hours. The 10 μl assays were individually brought to 200 μl with 0.1% dodecyl maltoside in buffer A in 12×75 mm tubes for flow cytometric measurement of fluorescence of the beads. LRG assembly was defined as the difference between fluorescence without GTPγS and that with GTPγS. All determinations were done in duplicate.

T1 sequence (P62873 2-340): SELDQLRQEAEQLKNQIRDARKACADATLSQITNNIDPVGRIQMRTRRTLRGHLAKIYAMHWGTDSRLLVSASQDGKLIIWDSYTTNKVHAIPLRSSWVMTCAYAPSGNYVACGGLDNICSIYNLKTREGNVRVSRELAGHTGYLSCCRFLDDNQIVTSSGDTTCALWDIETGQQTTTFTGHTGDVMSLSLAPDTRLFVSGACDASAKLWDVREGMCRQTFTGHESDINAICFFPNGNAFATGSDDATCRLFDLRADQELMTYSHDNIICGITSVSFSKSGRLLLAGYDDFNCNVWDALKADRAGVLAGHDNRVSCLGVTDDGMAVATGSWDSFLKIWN
T1 sequence (P07550 whole entry, the tested form may be a part): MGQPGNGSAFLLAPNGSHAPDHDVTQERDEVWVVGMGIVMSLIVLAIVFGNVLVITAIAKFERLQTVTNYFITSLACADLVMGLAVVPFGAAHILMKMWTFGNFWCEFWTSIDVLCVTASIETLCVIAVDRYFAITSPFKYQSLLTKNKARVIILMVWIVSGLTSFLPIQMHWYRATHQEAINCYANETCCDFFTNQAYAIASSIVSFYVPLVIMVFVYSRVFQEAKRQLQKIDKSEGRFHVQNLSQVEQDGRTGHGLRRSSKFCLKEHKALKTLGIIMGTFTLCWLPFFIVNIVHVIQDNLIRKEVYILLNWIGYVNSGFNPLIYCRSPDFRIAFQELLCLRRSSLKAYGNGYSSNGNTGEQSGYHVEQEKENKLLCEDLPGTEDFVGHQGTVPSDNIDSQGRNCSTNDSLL
T1 sequence (P59768 2-68, further chain): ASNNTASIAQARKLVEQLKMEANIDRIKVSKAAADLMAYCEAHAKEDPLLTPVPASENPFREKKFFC
T1 sequence (P63092 other isoform, or with tags, fused parts or gaps, further chain): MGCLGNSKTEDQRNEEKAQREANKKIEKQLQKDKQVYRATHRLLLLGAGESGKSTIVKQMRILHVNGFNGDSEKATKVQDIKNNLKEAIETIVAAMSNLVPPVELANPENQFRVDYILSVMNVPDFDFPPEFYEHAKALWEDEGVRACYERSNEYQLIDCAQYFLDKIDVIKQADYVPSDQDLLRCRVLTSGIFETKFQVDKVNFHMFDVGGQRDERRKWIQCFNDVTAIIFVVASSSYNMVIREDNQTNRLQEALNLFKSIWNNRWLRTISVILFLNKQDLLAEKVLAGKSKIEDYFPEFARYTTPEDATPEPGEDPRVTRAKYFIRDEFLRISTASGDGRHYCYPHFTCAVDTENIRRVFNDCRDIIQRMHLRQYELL
T2 sequence (P21462 whole entry, the tested form may be a part): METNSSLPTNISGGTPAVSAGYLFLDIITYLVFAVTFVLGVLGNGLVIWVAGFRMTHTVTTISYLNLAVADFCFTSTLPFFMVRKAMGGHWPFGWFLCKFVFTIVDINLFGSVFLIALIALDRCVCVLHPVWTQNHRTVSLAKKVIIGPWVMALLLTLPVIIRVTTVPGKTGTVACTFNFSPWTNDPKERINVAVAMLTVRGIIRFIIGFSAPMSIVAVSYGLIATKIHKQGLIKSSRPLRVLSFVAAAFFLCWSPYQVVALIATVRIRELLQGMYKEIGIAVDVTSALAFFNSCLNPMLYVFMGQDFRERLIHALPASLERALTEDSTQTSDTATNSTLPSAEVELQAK
T2 sequence (P08754 2-354 partner limits assumed): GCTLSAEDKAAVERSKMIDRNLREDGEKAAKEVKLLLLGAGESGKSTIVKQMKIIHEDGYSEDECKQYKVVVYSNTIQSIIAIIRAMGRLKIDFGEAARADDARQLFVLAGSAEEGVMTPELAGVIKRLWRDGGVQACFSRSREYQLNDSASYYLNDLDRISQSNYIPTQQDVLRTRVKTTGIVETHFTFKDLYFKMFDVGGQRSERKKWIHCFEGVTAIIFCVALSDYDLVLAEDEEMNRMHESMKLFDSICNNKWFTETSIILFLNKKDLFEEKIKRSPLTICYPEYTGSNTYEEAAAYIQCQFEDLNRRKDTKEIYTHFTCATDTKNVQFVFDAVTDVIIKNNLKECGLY
T2 sequence (P62873 2-340 partner limits assumed): as the sequence (P62873 2-340) above
T2 sequence (P59768 2-68 partner limits assumed): as the sequence (P59768 2-68, further chain) above

Compound | slope of GFP/bead versus β2AR-GFP concentration ([1]; saturating agonist) | efficacy (adenylyl cyclase activity compared to isoproterenol) [2] | percent ARG form (β2AR in membranes) | further results
CC(CCc1ccc(O)cc1)NCCc1ccc(O)c(O)c1 (stereo not shown) [dobutamine] | ⅔ |  |  | rate of ternary complex disassembly after GTPγS ([1]; 0.1 mM GTPγS): 0.09 s⁻¹; maximal ARG/bead level relative to the full agonist isoproterenol ([1]; dose-response, 20 nM β2AR-GFP): ten; time course of ARG assembly ([1]; saturating agonist, 40 nM β2AR-GFP): ≤ 1 h
CC(C)(C)NCC(O)c1ccc(O)c(CO)c1 (stereo not shown) [salbutamol] |  | 20% |  | 
CC(C)NCC(O)c1ccc(O)c(O)c1 (stereo not shown) [isoproterenol] |  | 100% | 80% | 
CNC[C@H](O)c1ccc(O)c(O)c1 [epinephrine] | indistinguishable from isoproterenol |  |  | 
NC[C@H](O)c1ccc(O)c(O)c1 [norepinephrine] | indistinguishable from isoproterenol |  |  | 
Nc1nc2c(ncn2[C@@H]2O[C@H](COP(=O)(O)OP(=O)(O)OP(O)(O)=S)[C@@H](O)[C@H]2O)c(=O)[nH]1 [GTPγS, guanosine 5′-3-O-(thio)triphosphate] |  |  |  | fluorescence on G protein beads with GTPγS added ([1]; 40 nM β2AR-GFP, 1 mM isoproterenol, 0.1 mM GTPγS): about 10,000 β2AR-GFP/bead
CC(C)NCC(O)c1ccc(O)c(NS(C)(=O)=O)c1 (stereo not shown) [soterenol] |  | 8% | 58% | 
CC(Cc1ccc(O)cc1)NCC(O)c1ccc(O)c(O)c1 (stereo not shown) [hydroxybenzylisoproterenol] |  | 110% | 93% | 
CSCC[C@H](NC=O)C(=O)N[C@@H](CC(C)C)C(=O)N[C@@H](Cc1ccccc1)C(=O)N[C@@H](Cc1ccccc1)C(=O)O [fMLFF] (For-MLFF-OH) |  |  |  | EC50 [3]: 27 nM; ratio of Kd (for LR) to EC50 (for LRG formation) [3]: 2.8

Source: patent publication US7232659B1, “Multiplex analysis for high throughput discrimination of GPCR agonists and antagonists” (STC.UNM, priority 2003, dated 2007)
